Laboratory results from patent US20230114808A1, “THERAPEUTIC RNA FOR PROSTATE CANCER” (BioNTech SE, priority 2019, published 2023).

Tests used:
[1] = Respiratory safety (plethysmography) within GLP repeated dose toxicity studies (LPT No. 28864, 30283); assay type: in vivo, mice; details: positive control, 30 mg/kg b.w.
Description: Respiratory safety was included in repeated dose toxicity studies in mice using RNA DPs coding for TAAs in compliance with GLP (LPT No. 28864 and 30283, for study design see below). For example, plethysmography was tested in the study with RNA(LIP) (LPT No. 30283) with four animals/sex/group treated either with control buffer, a low and a high dose (5 and 50 μg of RNA formulated with 9 μg and 90 μg of liposomes, respectively). A positive control of animals treated with 30 mg Carbamyl-β-methylcholine chloride (bethanecol)/kg b.w. was also included. Plethysmography was performed one day after the 4th to 7th dosing. The tests included the evaluation of respiratory rate, tidal volume, minute volume, inspiratory time, expiratory time, peak expiratory and inspiratory flow, expiratory time, and airway resistance index.

[2] = test system: KLK2, PSA (KLK3), PAP (ACPP), HOXB13, and NKX3-1; experiment: IFN-γ ELISPOT of splenocytes restimulated with mRNA-electroporated BMDCs after RNA(LIP) vaccination; assay type: in vivo, A2/DR1 mice; details: RNAs manufactured under GMP-conditions; study will be performed
[3] = test system: KLK2, PSA (KLK3), PAP (ACPP), HOXB13, and NKX3-1; experiment: as above; assay type: in vivo, A2/DR1 mice; details: 30 μg of each antigen RNA complexed with liposomes, IV, four to five vaccinations, R&D-quality RNA
Description: FIG. 18: Vaccination with W_pro1 antigen RNAs leads to antigen-specific T-cell responses. Splenocytes of intravenously vaccinated A2/DR1 mice (n=4-5/group) were restimulated for 20 h with BMDCs electroporated with the corresponding mRNAs as indicated. BMDCs electroporated with irrelevant mRNA were used as control (open symbols, grey bars). Effector function was measured using an IFN-γ ELISPOT assay. Symbols indicate mean values of triplicate wells from individual animals. Bars indicate median of all animals per group.
To obtain more information about the in vivo induction of antigen-specific T cells by the prostate specific antigens KLK2, PSA (KLK3), PAP (ACPP), HOXB13, and NKX3-1, RNA(LIP) products were prepared using RNA of R&D quality and liposomes of GMP-like quality. The RNA(LIP) products were injected intravenously into transgenic mice manipulated to express the human leukocyte antigens HLA-A*0201 and -DRB1*01. Using these mice the priming and expansion of T cells specific for HLA-restricted epitopes can be examined in vivo. A2/DR1 mice were vaccinated four to five times by injection of 30 μg of each antigen RNA complexed with liposomes, followed by isolation of spleen cells (5 days after last vaccination). The priming efficiency of the test items was evaluated by IFN-γ ELISPOT assay after restimulation with bone marrow derived dendritic cells (BMDC) electroporated with the respective mRNA or unrelated control mRNA.

[4] = test system: KLK2, KLK3 (PSA), ACPP (PAP), NKX3-1 or HOXB13; experiment: IFN-γ ELISPOT of splenocytes restimulated with peptide pools (Example 3); assay type: in vivo, A2/DR1 mice; details: 30 μg RNA(Lip) days 1, 8, 15, 22; splenocytes five days after final injection; unpaired t test
From the text: IFN-γ ELISPOT analysis of T-cell effectors from the spleen of mice immunized with lipoplex-formulated RNA coding for KLK2(aa 1-261), KLK3(aa 1-261), ACPP(aa 1-418), HOXB13(aa 1-284) or NKX3-1(aa 1-234). Splenocytes obtained five days after the final immunization were re-stimulated with either a peptide pool spanning the respective human protein, P2/P16/P17 peptides or with an irrelevant control peptide CMV pp65(495-504). Dots represent individual animals; horizontal bars indicate the mean±SD of the three animals.
At day 1, day 8, day 15, and day 22 A2/DR1 mice were immunized with 200 μL of a 0.15 mg/mL RNA(Lip) solution which corresponds to 30 μg RNA(Lip).
Splenocytes were obtained from the immunized A2/DR1 mice five days after the final of four RNA(Lip) injections, and in vivo induction ofantigen-specificTcells was determined by ELISPOT analysis. To test for the immunogenicity, isolated splenocytes were re-stimulated with a peptide pool (15 mers, overlapping by 11 amino acids) spanning the respective human proteins, KLK2, KLK3 (PSA), ACPP (PAP), NKX3-1 or HOXB13. […] On all ELISPOT plates, the negative control medium alone induced only a minimal spot count regardless of the animal the splenocytes had been derived from.

CC(C[N+](C)(C)C)OC(N)=O.[Cl-] (stereo not drawn) [Carbamyl-β-methylcholine chloride]
pulmonary parameters (plethysmography) [1]: expected alterations

beta-S-ARCA(D1)-hAg-Kozak-ACPP-GS-P2P16-GS-MITD-FI-A30L70 [RBL040.1]
immunogenicity [2]: comparable to the results from earlier studies | antigen-specific T-cell responses in vivo [3]: induced antigen-specific T-cell responses | IFN-γ+ spot count vs restimulation with control peptide CMV pp65 [4]: statistically higher

beta-S-ARCA(D1)-hAg-Kozak-KLK2-GS-P2P16-GS-MITD-FI-A30L70 [RBL038.1]
immunogenicity [2]: comparable to the results from earlier studies | antigen-specific T-cell responses in vivo [3]: induced antigen-specific T-cell responses | IFN-γ+ spot count vs restimulation with control peptide CMV pp65 [4]: statistically higher

beta-S-ARCA(D1)-hAg-Kozak-KLK3-GS-P2P16-GS-MITD-FI-A30L70 [RBL039.1]
immunogenicity [2]: comparable to the results from earlier studies | antigen-specific T-cell responses in vivo [3]: induced antigen-specific T-cell responses

beta-S-ARCA(D1)-hAg-Kozak-sec-GS-HOXB13-GS-P2P16-GS-MITD-FI-A30L70 [RBL041.1]
immunogenicity [2]: comparable to the results from earlier studies | antigen-specific T-cell responses in vivo [3]: induced antigen-specific T-cell responses | IFN-γ+ spot count vs restimulation with control peptide CMV pp65 [4]: statistically higher

beta-S-ARCA(D1)-hAg-Kozak-sec-GS-NKX31-GS-P2P16-GS-MITD-FI-A30L70 [RBL045.1]
immunogenicity [2]: comparable to the results from earlier studies | antigen-specific T-cell responses in vivo [3]: induced antigen-specific T-cell responses
